From ChEMBL document CHEMBL1131702, “Synthesis and biological activity of KCB-328 and its analogues: novel class III antiarrhythmic agents with little reverse frequency dependence” (1999)

How the values were obtained:
Cavia porcellus [1] = species: Cavia porcellus; assay: Effective refractory period of contractile response in isolated guinea-pig papillary muscles at 1 Hz and 1 uM.; type: functional, Muscle tissue
Cavia porcellus [2] = species: Cavia porcellus; assay: Effective refractory period of contractile response in isolated guinea-pig papillary muscles at 3 Hz and 1 uM.; type: functional, Muscle tissue
[3] = Ratio of ERPc prolongation was measured as percent change at 3 Hz/1 Hz; type: functional
Cavia porcellus [4] = species: Cavia porcellus; assay: Effect of 1 uM of compound, on action potential duration (APD) was determined in isolated guinea-pig papillary muscles at 3 Hz; type: functional, Muscle tissue
[5] = Ratio of APD prolongation was measured as percent change at 3 Hz/1 Hz; type: functional
Cavia porcellus [6] = species: Cavia porcellus; assay: Effect of 1 uM of compound, on action potential duration (APD) was determined in isolated guinea-pig papillary muscles at 1 Hz.; type: functional, Muscle tissue

## COc1ccc(CCN(C)CCOc2ccc(NS(C)(=O)=O)cc2I)cc1OC
Cavia porcellus [1]
  Delta ERPc: 28.9%
Cavia porcellus [2]
  Delta ERPc: 21.2%
[3]
  Ratio: 73

## COc1ccc(CCN(C)CCOc2ccc(NS(C)(=O)=O)cc2NC(C)=O)cc1OC
Cavia porcellus [1]
  Delta ERPc: 39.3%
Cavia porcellus [2]
  Delta ERPc: 27.7%
[3]
  Ratio: 70

## COc1cc(N)c(CCN(C)CCOc2ccc(NS(C)(=O)=O)cc2-n2cccc2)cc1OC
Cavia porcellus [1]
  Delta ERPc: 39.4%
Cavia porcellus [2]
  Delta ERPc: 24.7%
[3]
  Ratio: 62

## COc1ccc(CCN(C)CCOc2ccc(NS(C)(=O)=O)cc2C)cc1OC
Cavia porcellus [1]
  Delta ERPc: 28.9%
Cavia porcellus [2]
  Delta ERPc: 27.2%
[3]
  Ratio: 94

## COc1ccc(CCN(C)CCOc2ccc(NS(C)(=O)=O)cc2Nc2nccs2)cc1OC
Cavia porcellus [1]
  Delta ERPc: 43.4%
Cavia porcellus [2]
  Delta ERPc: 36.8%
[3]
  Ratio: 84

## COc1ccc(CCN(C)CCOc2ccc(NS(C)(=O)=O)cc2)cc1OC
Cavia porcellus [1]
  Delta ERPc: 60.1%
Cavia porcellus [2]
  Delta ERPc: 28.9%
[3]
  Ratio: 48

## COc1ccc(CCN(C)CCOc2ccc(NS(C)(=O)=O)cc2OCc2ccccc2)cc1OC
Cavia porcellus [1]
  Delta ERPc: 26.3%
Cavia porcellus [2]
  Delta ERPc: 30%
[3]
  Ratio: 114

## COc1cc(C)c(CCN(C)CCOc2ccc(NS(C)(=O)=O)cc2-n2cccc2)cc1OC
Cavia porcellus [1]
  Delta ERPc: 32.1%
Cavia porcellus [2]
  Delta ERPc: 26.3%
[3]
  Ratio: 81

## COc1cc(C)c(CCN(C)CCOc2ccc(NS(C)(=O)=O)cc2Cl)cc1OC
Cavia porcellus [1]
  Delta ERPc: 28%
Cavia porcellus [4]
  Delta APD90: 22.2%
Cavia porcellus [2]
  Delta ERPc: 33.1%
[5]
  Ratio: 82
Cavia porcellus [6]
  Delta APD90: 37.8%
[3]
  Ratio: 118

## COc1cc(CCN(C)CCOc2ccc(NS(C)(=O)=O)cc2Cl)c([N+](=O)[O-])cc1OC
Cavia porcellus [1]
  Delta ERPc: 29.4%
Cavia porcellus [2]
  Delta ERPc: 36.2%
[3]
  Ratio: 123

## Cc1cccc(CCN2CCC(C(=O)c3ccc(NS(C)(=O)=O)cc3)CC2)n1
Cavia porcellus [1]
  Delta ERPc: 41.8%
Cavia porcellus [2]
  Delta ERPc: 30.2%
[3]
  Ratio: 71

## COc1ccc(CCN(C)CCOc2ccc(NS(C)(=O)=O)cc2Cl)cc1OC
Cavia porcellus [1]
  Delta ERPc: 32.2%
Cavia porcellus [2]
  Delta ERPc: 30.8%
[3]
  Ratio: 95

## COc1ccc(CCN(C)CCOc2ccc(NS(C)(=O)=O)cc2-n2cccc2)cc1OC
Cavia porcellus [1]
  Delta ERPc: 31.2%
Cavia porcellus [4]
  Delta APD90: 26.2%
Cavia porcellus [2]
  Delta ERPc: 40.1%
[5]
  Ratio: 99
Cavia porcellus [6]
  Delta APD90: 26.4%
[3]
  Ratio: 128

## CN(CCOc1ccc(NS(C)(=O)=O)cc1)CCc1ccc(NS(C)(=O)=O)cc1 [DOFETILIDE]
Cavia porcellus [1]
  Delta ERPc: 49.9%
Cavia porcellus [4]
  Delta APD90: 26.8%
Cavia porcellus [2]
  Delta ERPc: 30.8%
[5]
  Ratio: 59
Cavia porcellus [6]
  Delta APD90: 45.6%
[3]
  Ratio: 65

## COc1ccc(CCN(C)CCOc2ccc(NS(C)(=O)=O)cc2F)cc1OC
Cavia porcellus [1]
  Delta ERPc: 34.5%
Cavia porcellus [2]
  Delta ERPc: 25.9%
[3]
  Ratio: 75

## COc1cc(N)c(CCN(C)CCOc2ccc(NS(C)(=O)=O)cc2Cl)cc1OC
Cavia porcellus [1]
  Delta ERPc: 27.5%
Cavia porcellus [2]
  Delta ERPc: 34.7%
[3]
  Ratio: 126

## COc1ccc(CCN(C)CCOc2ccc(NS(C)(=O)=O)cc2N)cc1OC
Cavia porcellus [1]
  Delta ERPc: 31%
Cavia porcellus [4]
  Delta APD90: 28.6%
Cavia porcellus [2]
  Delta ERPc: 32.6%
[5]
  Ratio: 86
Cavia porcellus [6]
  Delta APD90: 33.3%
[3]
  Ratio: 105

## COc1ccc(CCN(C)CCOc2ccc(NS(C)(=O)=O)cc2Br)cc1OC
Cavia porcellus [1]
  Delta ERPc: 32.8%
Cavia porcellus [2]
  Delta ERPc: 25.2%
[3]
  Ratio: 76

## COc1ccc(CCN(C)CCOc2ccc(NS(C)(=O)=O)cc2[N+](=O)[O-])cc1OC
Cavia porcellus [1]
  Delta ERPc: 33.3%
Cavia porcellus [2]
  Delta ERPc: 25%
[3]
  Ratio: 75

## COc1cc(Cl)c(CCN(C)CCOc2ccc(NS(C)(=O)=O)cc2Cl)cc1OC
Cavia porcellus [1]
  Delta ERPc: 22.4%
Cavia porcellus [2]
  Delta ERPc: 17.8%
[3]
  Ratio: 79
